Data on one compound can be found in paper PMC5439949, “Structural features of PhoX, one of the phosphate-binding proteins from Pho regulon of Xanthomonas citri” (PLoS ONE, 2017).

By Tm is commonly meant the temperature at the midpoint of the melting transition.

One assay deals with PhoX (Xanthomonas citri, UniProt A0AAI8ERC0). In words: thermal unfolding by CD at […] nm. To be noted: Tm without to with 30 μM NaH2PO4; 2 μM protein, 10 mM Tris-HCl pH 8.0, 20-95 °C. The assay is classed as binding.
Chain of PhoX (A0AAI8ERC0 entry or part of it): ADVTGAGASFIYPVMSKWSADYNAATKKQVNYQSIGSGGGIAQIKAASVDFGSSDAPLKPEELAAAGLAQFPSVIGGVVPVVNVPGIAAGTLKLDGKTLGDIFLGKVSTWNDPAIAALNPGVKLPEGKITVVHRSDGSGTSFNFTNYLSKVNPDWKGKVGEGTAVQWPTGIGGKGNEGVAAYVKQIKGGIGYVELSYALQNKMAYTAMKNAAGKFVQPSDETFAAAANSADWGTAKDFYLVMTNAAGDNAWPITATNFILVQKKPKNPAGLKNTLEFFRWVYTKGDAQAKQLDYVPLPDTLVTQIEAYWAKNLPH
Another assay addresses PstS (Xanthomonas citri, UniProt A0AAI8ESD8). In words: thermal unfolding by CD at […] nm. To be noted: Tm without to with 30 μM NaH2PO4; 2 μM protein, 10 mM Tris-HCl pH 8.0, 20-95 °C. The assay is classed as binding.

Chain of PstS (A0AAI8ESD8 entry or part of it): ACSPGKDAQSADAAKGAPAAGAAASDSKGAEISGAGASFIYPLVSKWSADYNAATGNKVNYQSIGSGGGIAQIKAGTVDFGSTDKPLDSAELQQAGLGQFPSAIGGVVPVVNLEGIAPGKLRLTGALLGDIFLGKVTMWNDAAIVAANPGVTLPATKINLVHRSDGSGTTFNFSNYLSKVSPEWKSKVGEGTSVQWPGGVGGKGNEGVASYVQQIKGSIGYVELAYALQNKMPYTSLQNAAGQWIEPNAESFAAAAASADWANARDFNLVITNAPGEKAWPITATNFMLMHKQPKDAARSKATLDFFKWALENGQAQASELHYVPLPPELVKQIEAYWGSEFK

In the case of `O=P(O)(O)O` [phosphate], the Tm was 64 to 77 °C at PhoX and 71 to 78 °C on PstS.
